Test results taken from US7943646B2, “Benzamidine derivative, process for the preparation thereof and pharmaceutical composition comprising same” (Dong Wha Pharmaceutical Co., Ltd., priority 2006, dated 2011).
Like-named read-outs stand apart in the source and are kept apart here.

Tests used:
[1] = test system: osteoclast differentiation; experiment: Inhibitory effect on osteoclast differentiation, co-culture of bone marrow cells and osteoblast, TRAP staining; format: cell-based, mouse; details: for inhibition at 1 µM: Mus musculus, Osteoclast, 168 h, read-out: inhibitory effect on osteoclast differentiation(%)
Procedure: The effect of the benzamidine derivative of the present invention on osteoclast formation and differentiation process was evaluated via co-culture with an osteoblast.
Tibia was aseptically ectomized from male 6 to 8-week-old ddY mice to harvest bone marrow cells by using a syringe (21G, Korea Green Cross). The bone marrow cells were suspended in 5 mL of an α-MEM medium (Gibco BRL Co., added with sodium bicarbonate (2.0 g/L), streptomycin (100 mg/L) and penicillin ([…]), filtered and then sterilized). The harvested cells were centrifuged at 600×g for 5 mins to collect the whole quantity. To remove the red blood cells in the bone marrow cells, 3 mL of Tris HCl (0.83% NH4Cl, pH 7.5) was added and well mixed. After centrifuging above cells, the numbers of the eukaryotic cells in the harvested bone marrow cells were counted and then immediately used for a co-culture system.
The progenitor bone and the parietal bone were aseptically ectomized from 1 to 2-day-old neonate ICR mice, washed with a phosphate butter solution (PBS) and treated with a mixed enzyme solution (of 0.2% collagenase and 0.1% dispase) sequentially (10, 10, 10, 20, 20 and 20 min), and then 3 to 6 groups of the cells which comprise lot of cells having the characteristics of the osteoblast were intensively collected and washed with a medium (a serum-free α-MEM). The washed cells were cultured in the α-MEM medium containing 10% FBS for 2 to 3 days. After subculturing, the collected cells were used for this experiment, and diluted to a concentration of 1×10^6 cells/mL for storage at −70[…].
The benzamidine derivative of the present invention was dissolved in a sterile distilled water or ethanol to dilute to a desired concentration. The final volume of the sample added to the cell culture medium was set at a ratio of 1:1000.
The bone marrow cells prepared in the above 1-1 and the osteoblast were co-cultured for osteoclast differentiation. Both the bone marrow cells (25,000 cells/cm^2) and the osteoblast (10,000 cells/cm^2) were plated in a 96-well plate using α-MEM medium containing FBS, and then cultured with the samples to be tested for 7 days. Differentiation factors, such as dexamethasone (10^−7 M) and vitamin D3 (10^−8 M), were also co-added to the medium from the first day of cultivation. The medium was changed with a fresh media containing a mixture of the samples and the differentiation factors every 2 to 3 days.
TRAP was used as a marker to measure the matured osteoclast in consideration of its characteristics showing a positive reaction to a TRAP staining solution. The TRAP staining solution was prepared in such the manner that 5 mg of naphtol AS-MS phosphate (sigma N-4875) as a substrate, and 25 mg of a coloring agent (Fast Red Violet LB salt) were dissolved in N,N-dimethylformamide (about 0.5 mL). 50 ml of a 0.1 N NaHCO3 buffer solution containing 50 mM tartaric acid (pH 5.0) was added thereto, and the mixture was stored at a refrigerator prior to use as a staining solution.
After culturing the cells for 7 days, the medium was removed from the wells, the cells were once washed with PBS, and then fixed with PBS containing 10% formalin for 2 to 5 min. The cells were fixed again in a mixed solution of ethanol and acetone (1/1) for about 1 min, and dried off. The cells were further treated by the TRAP staining solution for 15 mins and washed with water and dried off. The osteoclasts with 3 or more nuclei showing a TRAP-positive reaction were counted under a microscopic examination. Each of tests was confirmed over at least three times. The inhibitory effect on osteoclast differentiation of each experimental group, relative to negative controls, was expressed as a percentage (%).

MC3T3 = experiment: Cytotoxicity test (MTT), MC3T3; format: cell-based; details: 10^−6M, 72 hrs, in comparison with the control group
Procedure: (§1) The cytotoxic effect of the benzamidine derivative of the present invention was evaluated by carrying out the experiment described below.
(§2) The test substance was diluted in an appropriate solvent at a 10^−2 M concentration. This substance was diluted in an appropriate culture medium for the cells used in the cytotoxicity test to a concentration of […], and loaded into a 96-well plate in 100 μl per well. The cell lines to be used in the cytotoxicity test were plated on a 96-well plate in a dose of 1.0×10^4 cells/1OO μl per well and cultured for 72 hrs. 25 μl of MTT [3-(4,5-dimethyl-2-thiazolyl)-2,5-diphenyl-2H-tetrazolium bromide] dissolved in PBS (2 mg/mL) were added before 4 hrs of the end of culture. After completion of the reaction, the plates were centrifuged, the medium was discarded and 100 μl of DMSO was added to dissolve formazan. Finally, the absorbance of the developed plates was measured at 540 nm. The survival rates of the cells were expressed as % concentration values in comparison with the control group.

calvaria = experiment: Cytotoxicity test (MTT), calvaria; format: cell-based; details: 10^−6M, 72 hrs, in comparison with the control group
Procedure: as §1, §2

HOS = experiment: Cytotoxicity test (MTT), HOS; format: cell-based; details: 10^−6M, 72 hrs, in comparison with the control group
Procedure: as §1, §2

[2] = 1 μm, 7 days co-culture, TRAP-positive osteoclasts with 3 or more nuclei, relative to negative controls

| SMILES | inhibition at 1 µM [1] | survival rates of the cells (MC3T3) | survival rates of the cells (calvaria) | survival rates of the cells (HOS) | inhibition at 1 µM [1, 2] | inhibitory effect on osteoclast differentiation(%) [1, 2] |
| --- | --- | --- | --- | --- | --- | --- |
| N=C(NO)c1ccc(OCCCCCOc2ccc(-c3nc(C4CCCCC4)sc3CCNCCN3CCOCC3)cc2)cc1 [Example 35, N-hydroxy-4-[5-(4-{2-cyclohexyl-5-[2-(2-morpholin-4-yl-ethylamino)-ethyl]-thiazol-4-yl}-phenoxy)-pentyloxy]-benzamidine] | 100% | 98.6% | 81.6% | 115.7% |  |  |
| CN(C)CCc1sc(C2CCCCC2)nc1-c1ccc(OCCCCCOc2ccc(C(=N)NO)cc2)cc1 [Example 37, N-hydroxy-4-(5-{4-[2-cyclohexyl-5-(2-dimethylamino-ethyl)-thiazol-4-yl]-phenoxy}-pentyloxy)-benzamidine] |  | 94.9% | 84.7% | 116.7% | 100% |  |
| CCCN(CCC)CCc1sc(C2CCCCC2)nc1-c1ccc(OCCCCCOc2ccc(C(=N)NO)cc2)cc1 [Example 38, N-hydroxy-4-(5-{4-[2-cyclohexyl-5-(2-dipropylamino-ethyl)-thiazol-4-yl]-phenoxy}-pentyloxy)-benzamidine] |  | 104.7% | 94.9% | 96.2% | 100% |  |
| N=C(NO)c1ccc(OCCCCCOc2ccc(-c3nc(C4CCCCC4)sc3CCNC3CC3)cc2)cc1 [Example 39, N-hydroxy-4-(5-{4-[2-cyclohexyl-5-(2-cyclopropylamino-ethyl)-thiazol-4-yl]-phenoxy}-pentyloxy)-benzamidine] |  | 85.0% | 93.1% | 111.0% | 100% |  |
| N=C(NO)c1ccc(OCCCCCOc2ccc(-c3nc(N)sc3CCNCCN3CCOCC3)cc2)cc1 [Example 40, N-hydroxy-4-[5-(4-{2-amino-5-[2-(2-morpholin-4-yl-ethylamino)-ethyl]-thiazol-4-yl}-phenoxy)-pentyloxy]-benzamidine] |  | 102.2% | 99.7% | 103.2% | 24.6% |  |
| N=C(NO)c1ccc(OCCCCCOc2ccc(-c3nc(-c4ccccc4)sc3CCN3CCOCC3)cc2)cc1 [Example 41, N-hydroxy-4-(5-{4-[5-(2-morpholin-4-yl-ethyl)-2-phenyl-thiazol-4-yl]-phenoxy}-pentloxy)-benzamidine] |  | 85.9% | 78.6% | 78.8% |  | 100% |
| CCc1nc(-c2ccc(OCCCCCOc3ccc(C(=N)NO)cc3)cc2)c(CCN2CCOCC2)s1 [Example 42, N-hydroxy-4-(5-{4-[2-ethyl-5-(2-morpholin-4-yl-ethyl)-thiazol-4-yl]-phenoxy}-pentyloxy)-benzamidine] |  | 81.5% | 73.8% | 98.9% | 100% |  |
| CCc1nc(-c2ccc(OCCCCCOc3ccc(C(=N)NO)cc3)cc2)c(CCN2CCSCC2)s1 [Example 43, N-hydroxy-4-(5-{4-[2-ethyl-5-(2-thiomorpholin-4-yl-ethyl)-thiazol-4-yl]-phenoxy}-pentyloxy)-benzamidine] |  | 86.5% | 91.9% | 80.4% | 97.7% |  |
| Cc1nc(-c2ccc(OCCCCOc3ccc(C(=N)NO)cc3)cc2)c(CCN2CCOCC2)s1 [Example 44, N-hydroxy-4-(4-{4-[2-methyl-5-(2-morpholin-4-yl-ethyl)-thiazol-4-yl]-phenoxy}-butoxy)-benzamidine] |  | 101.3% | 90.6% | 105.6% |  |  |
| N=C(N)c1ccc(OCCCCCOc2ccc(-c3nc(C4CCCCC4)sc3CCN3CCOCC3)cc2)cc1 [Example 45, 4-(5-{4-[2-cyclohexyl-5-(2-morpholin-4-yl-ethyl)-thiazol-4-yl]-phenoxy}-pentyloxy)-benzamidine] |  | 108.2% | 90.5% | 106.9% |  |  |
| Cc1nc(-c2ccc(OCCCCCOc3ccc(C(=N)N)cc3)cc2)c(CCN2CCOCC2)s1 [Example 46, 4-(5-{4-[2-methyl-5-(2-morpholin-4-yl-ethyl)-thiazol-4-yl]-phenoxy}-pentyloxy)-benzamidine] |  | 95.3% | 99.9% | 94.1% | 63.4% |  |
| CNc1nc(-c2ccc(OCCCCCOc3ccc(C(=N)N)cc3)cc2)c(CCN2CCOCC2)s1 [Example 52, 4-(5-{4-[2-methylamino-5-(2-morpholin-4-yl-ethyl)-thiazol-4-yl]-phenoxy}-pentyloxy)-benzamidine] |  | 115.6% | 100.1% | 98.8% |  |  |
| N=C(N)c1ccc(OCCCCCOc2ccc(-c3nc(N4CCOCC4)sc3CCN3CCOCC3)cc2)cc1 [Example 64, 4-(5-{4-[2-morpholin-4-yl-5-(2-morpholin-4-yl-ethyl)-thiazol-4-yl]-phenoxy}-pentyloxy)-benzamidine] |  | 119.8% | 99.4% | 107.8% |  |  |
| Cc1nc(-c2ccc(OCCCCCOc3ccc(C(=N)NO)cc3)cc2)c(CCN(CC(C)C)C(=O)c2cccnc2)s1 [Example 66, N-hydroxy-4-{5-[4-(5-{2-[isobutyl-(pyridine-3-carbonyl)-amino]-ethyl}-2-methyl-thiazol-4-yl)-phenoxy]-pentyloxy}-benzamidine] |  | 111.1% | 99.0% | 105.9% |  |  |
| CC(C)c1nc(-c2ccc(OCCCCCOc3ccc(C(=N)NO)cc3)cc2)c(CCN(C(=O)c2ccncc2)C2CC2)s1 [Example 67, N-hydroxy-4-{5-[4-(5-{2-[cyclopropyl-(pyridine-4-carbonyl)-amino]-ethyl}-2-isopropyl-thiazol-4-yl)-phenoxy]-pentyloxy}-benzamidine] |  | 80.7% | 95.3% | 97.5% |  |  |
| N=C(NO)c1ccc(OCCCCCOc2ccc(-c3nc(C4CCCCC4)sc3CCN(C(=O)c3cccnc3)C3CC3)cc2)cc1 [Example 68, N-hydroxy-4-{5-[4-(2-cyclohexyl-5-{2-[cyclopropyl-(pyridine-3-carbonyl)-amino]ethyl}-thiazol-4-yl)-phenoxy]-pentyloxy}-benzamidine] |  | 90.3% | 91.4% | 82.9% |  |  |
